Experiments:
[1] = test system: calvaria; test: Inhibitory effect on bone absorption (calcium liberation from PTH enhanced cultured calvaria); assay type: cell-based; conditions: newborn dd mouse calvaria culture, PTH 1 x 10^-8M, 96 hours, total calcium in the culture
Procedure: The calvaria was excised from a newborn dd mouse (5 to 6 days old) under sterile conditions. The calvaria was washed with a modified Dulbecco phosphate buffer physiological saline solution containing neither calcium nor magnesium (a product of Gibco Oriental), and divided into two parts along the center suture. A half of the calvaria was cultivated in a modified Dulbecco Eagle medium (1.5 ml) (a product of Gibco Oriental) containing 2.5% fetal calf serum and 15% equine serum which had been inactivated by heating at 56°C for 20 minutes. The test compound was dissolved in dimethyl sulfoxide and 10 µl of the resulting solution was added to the culture medium to give the final concentrations of 3 x 10^-6M, 1 x 10^-5M, and 3 x 10^-5M. PTH (parathyroid hormone) was dissolved in a 0.15 M saline solution (pH 3) and 3 µl of the resulting solution was added to the culture medium to give the final concentration of 1 x 10^-8M. The culturing was carried out under the condition of 95 % air and 5 % carbon dioxide and at a temperature of 37°C for 96 hours. At 48 hours after the start of the culturing, the culture medium was renewed and the test compound and PTH treated as defined above were added thereto. For examining the effect of the test compound on calcium liberation (bone absorption) from the PTH enhanced bone, a control group, a group using PTH (1 x 10^-8M), and a group using both the test compound (3 x 10^-6M, 1 x 10^-5M, 3 x 10^-5M) and PTH were prepared. The amount of the bone absorption was determined by measuring the amount of calcium accumulated in the culture as collected after 96 hours of culturing. The total calcium concentration in the culture was measured with Calcium C Test Wako. The inhibition rate was calculated using the following equation and the result was shown in terms of 50% inhibitory concentration (IC50). Inhibition of bone absorption from PTH enhanced bone Inhibition rate (%) = [(CP - CD )/(CP - C0 )] x 100 [formula] C0 : The total calcium concentration in the culture containing neither the test compound nor PTH. CP : The total calcium concentration in the culture treated with only PTH. CD : The total calcium concentration in the culture treated . with both the test compound and PTH.

[2] = test system: bone density; test: Inhibitory effect on decrease of bone density by ovariectomy; assay type: in vivo; conditions: ovariectomized female SD strain rats, 10 mg/kg orally once a day for 3 weeks, right hindlimb, DEXA (DXA) method
Procedure: The experiment was carried out using 10-weeks-old female SD strain rats (Charles River Japan Inc.) The ovaries on both sides of the rats were excised under anesthesia using Nembutal. The test compound (10 mg/kg) was dissolved or suspended in distilled water for injection (a product of Otsuka Pharmaceutical Co., Ltd.) and administered orally once a day from the first day after the operation for 3 weeks. For the control group, distilled water for injection alone was administered. The rat was slaughtered by neck dislocation, the right hindlimb was ablated, and then the bone density of the neck was measured according to a DEXA (DXA) method [Japan Clinic, 52 (9), 2329-2334 (1994)] using bone mineral measuring apparatus DCS-600 (a product of Aloka Co., Ltd.) The inhibition rate of decrease in the bone density of the test compound-administered group was calculated from the decrease of the bone density in the test compound-administered group and that in the control group.

| SMILES | IC50 [1] | Inhibition rate of decrease in bone density (%) [2] |
| --- | --- | --- |
| O=C(c1[nH]c2ccccc2c1C(c1ccc(O)cc1)c1ccc(O)cc1)N1CCN(c2ccccc2Cl)CC1 [Compound 8, 1-{3-[Bis(4-hydroxyphenyl)methyl]indol-2-ylcarbonyl}-4-(2-chloroghenyl)piperazine] | > 30 µM |  |
| CN(C)CCn1c(C(=O)N2CCN(c3ccccc3Cl)CC2)c(C(c2ccc(O)cc2)c2ccc(O)cc2)c2ccccc21.CS(=O)(=O)O [Compound 9, 1-{3-[Bis(4-hydroxyphenyl)methyl]-1-(2-dimethylaminoethyl)indol-2-ylcarbonyl}-4-(2-chlorophenyl)piperazine methanesulfonate] | 11.5 µM | 97% |
| CS(=O)(=O)O.O=C(c1c(C(c2ccc(O)cc2)c2ccc(O)cc2)c2ccccc2n1CCN1CCOCC1)N1CCN(c2ccccc2Cl)CC1 [Compound 10, 1-{3-[Bis(4-hydroxyphenyl)methyl]-1-(2-morpholinoethyl)indol-2-ylcarbonyl}-4-(2-chlorophenyl)-piperazine methanesulfonate] | 9.6 µM | 33% |
| CCCNC(=O)c1c(C(c2ccc(O)cc2)c2ccc(O)cc2)c2ccccc2n1CCN(C)C [Compound 11, N-Propyl-3-[bis(4-hydroxyphenyl)methyl]-1-(2-dimethylaminoethyl)indole-2-carboxamide methanesulfonate] | > 30 µM |  |
| CC(C)NC(=O)c1c(C(c2ccc(O)cc2)c2ccc(O)cc2)c2ccccc2n1CCN(C)C [Compound 12, N-Isopropyl-3-[bis(4-hydroxyphenyl)methyl]-1-(2-dimethylaminoethyl)indole-2-carboxamide methanesulfonate] | > 30 µM |  |
| CN(C)CCn1c(C(=O)N2CCCCC2)c(C(c2ccc(O)cc2)c2ccc(O)cc2)c2ccccc21 [Compound 13, 1-{3-[Bis(4-hydroxyphenyl)methyl]-1-(2-dimethylaminoethyl)indol-2-ylcarbonyl)piperidine methanesulfonate] | 15 µM |  |
| CN(C)CCn1c(C(=O)NC2CCCCCC2)c(C(c2ccc(O)cc2)c2ccc(O)cc2)c2ccccc21 [Compound 14, N-Cycloheptyl-3-[bis (4-hydroxyphenyl)methyl]-1-(2-dimethylaminoethyl)indole-2-carboxamide methanesulfonate] | 11.9 µM |  |

Source: patent EP0741132B1, “INDOLE DERIVATIVES” (KYOWA HAKKO KOGYO CO., LTD., priority 1994, dated 1995)
